Measurements: patent US20040209933A1, “Oxazole derivatives” (priority 2003, published 2004)

Columns and labels:
[1] = tested on: QG56 cells; assay: BrdU/Hoechst quenching assay, cell kinetic FACS analysis (G1 cell cycle arrest); assay type: cell-based; conditions: incubation for 24 h; for percentage of QG56 cells arrested in the first G1 phase, compared with reference compound: 3 μM; for n-fold increase of cells arrested in first cell cycle: compound concentration 3 μM, QG56 squamous cell carcinoma cells, Control (DMSO) = 1
Method: A squamous cell carcinoma cell line (e.g. QG 56) was cultivated in DMEM/10%FCS/2 mM glutamine at about 60% confluency. Exponentially growing cells were seeded at a density of 1×10^4 cells/cm^2 in 2 ml of medium per 6 wells. After 24 hours medium was replaced and compounds were added.
For the BrdU/Hoechst quenching assay the media were supplemented with […] and deoxycytidine, respectively. All experiments were performed in 6 well culture plates.
The cell culture setup is as described above. All compounds were dissolved in DMSO at a concentration of 10 mM.
Adherent cells were harvested at 24 h by trypsinization and cells from the supernatant were added to the population.
After centrifugation cell pellets were resuspended at 1-10×10^5 cells/ml in DNA-staining puffer (100 mM Tris pH 7.4, 154 mM NaCl, 1 mM CaCl2, 0.5 mM MgCl2, 0.2% BSA, 0.1% NP40) supplemented with 5 ug/ml RNAse A and 1.5 ug/ml Hoechst 33258. After 15 min propidium iodide was added to a final concentration of 1.5 ug/ml for another 15 min. The fluorochrome labeled cells were analysed on a flow cytometer (BD LSR) applying dual laser excitation (UV and 488 nm).
Compounds of Example 1, Example 2 and Example 4 were tested at a concentration of 3 μM.

Row | SMILES | melting point [°C] | percentage of QG56 cells arrested in the first G1 phase, compared with reference compound [1] | n-fold increase of cells arrested in first cell cycle [1] [n-fold]
1 | COc1ccc(C=Cc2nc(COc3ccc(CCCCn4ccnn4)cc3)co2)cc1 [Example 1, 1-[4-(4-{2-[2-(4-Methoxy-phenyl)-vinyl]-oxazol-4-ylmethoxy}-phenyl)-butyl]-1H-[1,2,3]triazole] | 148 to 151 | higher percentage | 23.7
2 | C(=Cc1nc(COc2ccc(CCCCn3ccnn3)cc2)co1)c1ccc2c(c1)OCO2 [Example 4, 1-(4-{4-[2-(2-Benzo[1,3]dioxol-5-yl-vinyl)-oxazol-4-ylmethoxy]-phenyl}-butyl)-1H-[1,2,3]triazole] |  | higher percentage | 17.9
3 | FC(F)(F)c1ccc(C=Cc2nc(COc3ccc(CCCCn4ccnn4)cc3)co2)cc1 [reference compound, 1-[4-(4-{2-[2-(4-Trifluoromethyl-phenyl)-vinyl]-oxazol-4-ylmethoxy}-phenyl)-butyl]-1H-[1,2,3]triazole, reference compound] |  |  | 17.2

The next lines start with results.

Row | melting point [°C] | SMILES | percentage of QG56 cells arrested in the first G1 phase, compared with reference compound [1] | n-fold increase of cells arrested in first cell cycle [1] [n-fold]
4 | 138 to 140 | FC(F)(F)Oc1ccc(C=Cc2nc(COc3ccc(CCCCn4ccnn4)cc3)co2)cc1 [Example 2, 1-[4-(4-{2-[2-(4-Trifluoromethoxy-phenyl)-vinyl]-oxazol-4-ylmethoxy}-phenyl)-butyl]-1H-[1,2,3]triazole] | higher percentage | 19.2
5 | 144 to 145 | FC(F)(F)Sc1ccc(C=Cc2nc(COc3ccc(CCCCn4ccnn4)cc3)co2)cc1 [Example 5, 1-[4-(4-{2-[2-(4-Trifluoromethylsulfanyl-phenyl)-vinyl]-oxazol-4-ylmethoxy}-phenyl)-butyl]-1H-[1,2,3]triazole] |  | 
